Laboratory results from PMC12220852, “An adamantane‐based ligand as a novel chemical tool for thermosensory TRPM8 channel therapeutic modulation” (The Febs Journal, 2025).
“Also recorded” adds a separate entry of the source.

Assays:
[1] = test system: oxaliplatin‐induced peripheral cold allodynia in mice; assay: Acetone drop test in oxaliplatin-induced cold allodynia; type: in vivo, mouse; details: 30 and 90 min after administration, oxaliplatin-treated mice
Protocol: Given the inhibitory activity of compound 23 and the antinociceptive effects of TRPM8 antagonists described in models of oxaliplatin (OXP)‐induced neuropathy, we conducted a behavioral experiment in mice to assess the antinociceptive effects of compound 23 after repeated oxaliplatin administration. Oxaliplatin was intraperitoneally (i.p.) administered every other day for 5 days at 6 mg·kg^−1, reaching a total accumulative dose of 18 mg·kg^−1. […]
The systemic effect of compound 23 was assessed after intraperitoneal administration at 5 mg·kg^−1, dissolved in a solution of 2% Cremophor and 5% DMSO in saline, with a volume of 10 mL·kg^−1. […] Nociceptive sensitivity was evaluated for 30‐ and 90‐min postinjection using the acetone drop test (7 days after the first oxaliplatin dose) and the dry ice test (9 days after the last oxaliplatin dose).
The local effect of compound 23 or its vehicle was assessed 11 days after beginning the oxaliplatin treatment through subcutaneous intraplantar injection of 1 μg compound 23 or vehicle (2% Cremophor and 5% DMSO in saline) in the ventral side of the right hind paw, administered in a volume of 10 μL [66]. […] Nociceptive sensitivity was evaluated 30 and 90 min after the intraplantar injection with the acetone test. […]

[2] = test system: AITC‐induced excitability in murine nociceptors; assay: Multielectrode array (MEA): AITC-induced firing in nociceptors; type: cell-based; details: 5 μM compound, 100 μM AITC, P2/P1
Protocol: Additionally, we investigated the effect of compound 23 on capsaicin and AITC‐induced excitability in murine nociceptors. Employing an IC50 value of 1 μM for TRPV1 and 5 μM for TRPA1 of firing inhibition by compound 23 (Fig. 4), we interrogated its ability to modulate neuronal excitability. As for TRPM8, our experimental design involved a protocol of dual agonist pulses interspersed with a washing pulse to minimize agonist‐induced channel desensitization. Compound 23 was administered 1 min prior to and during the second agonist pulse.
Primary cultures of neonatal dorsal root ganglia were used for multielectrode array (MEA) and patch‐clamp experiments following established methodologies previously described. Neonatal dorsal root ganglia (DRGs) were obtained from Wistar rats (3–5 days old) and were isolated and digested with 0.25% (w/v) collagenase (type IA) in DMEM GlutaMax with 1% (v/v) penicillin/streptomycin (P/S) solution for 1 h at 37 °C in a 5% CO2 Thermo Scientific incubator. Following digestion, DRGs were mechanically dissociated and passed through a 100 μm cell strainer to obtain single‐cell suspensions. Suspensions were washed with DMEM GlutaMax with 10% (v/v) fetal bovine serum (FBS) and 1% (v/v) penicillin/streptomycin (P/S). Cells were then seeded in microelectrode array chambers coated with poly‐L‐lysine (8.3 μg·mL^−1) and laminin (5 μg·mL^−1). […]

## O=C(COC(=O)c1ccccc1-c1ccccc1)NC12CC3CC(CC(C3)C1)C2 [Compound 23, 2‐((3S,5S,7S)‐adamantan‐1‐ylamino)‐2‐oxoethyl [1,1′‐biphenyl]‐2‐carboxylate]
[1]; 1 μg subcutaneous intraplantar (i.pl.)
  effect on response to acetone, local treatment: alleviated oxaliplatin‐induced cold sensitivity; also recorded: significant antinociceptive effect
[1]; 5 mg·kg^−1 i.p., vs vehicle
  effect on licking response to acetone drops, systemic treatment: no significant effect; also recorded: did not significantly affect
[2]
  attenuation of AITC‐induced firing: 40%
